From patent US12702692B2, “Therapeutic use of calcium-activated chloride channel peptide activator” (CENTRE NATIONAL DE LA RECHERCHE SCIENTIFIQUE, priority 2020, dated 2026)

Key:
TMEM16A [1] = biological target: T1, TMEM16A (Mus musculus, UniProt Q8BHY3); assay: Whole-cell patch-clamp of voltage-dependent Cl- current in proximal convoluted tubule (PCT) cells; type: cell-based; settings: for Cl- current density after inhibitor: wild type PCT cells, untreated wild type 18.07±1.21
T1 construct: endogenous in cells; host or cells: primary mouse kidney proximal convoluted tubule (PCT) cells
Method: (§1) mTMEM16A (kindly provided by Dr Lily Yeh Jan) and hKCNE1 cDNA were subcloned in pIRES2eGFP, pXOOM, pcDNA3.1, pCDNA3.1-GFP and pCMV-HA vectors. Truncations and mutations on KCNE1 were generated by PCR. For SiMPull experiments, HA-tags were fused to the N-terminus of sequences, whereas GFP-tags were fused to C-terminal part. HEK293T and PCT cells were transiently co-transfected using Lipofectamine 2000 or the calcium phosphate method with a total amount of 1 and 3.5 μg of DNA, respectively, and seeded on 18 mm diameter coverslips. HEK cells were maintained in DMEM with 5% FBS on poly-L-lysine-coated glass coverslips in 12 well plates. PCT cells from wild type and knock-out mice were microdissected as described previously and maintained in F12 (Gibco) on collagen-coated glass coverslips.
(§2) HEK293T and PCT cell electrophysiology was performed 24-48 h after transfection. For whole-cell patch-clamp experiments cells were recorded in a bath solution containing (in mM) 150 NaCl, 5 KCl, 2 CaCl2 and 10 HEPES, pH 7.4 and 0.05% BSA. The glass pipettes (2-5 MΩ of resistance) were filled with (in mM) 5 NaCl, 135 CsCl, 2 MgCl2, 5 EGTA, 10 HEPES, pH 7.3. Cells were recorded either after incubation of 30 min with the peptide or during perfusion with the peptide. Total calcium concentration was calculated with Maxchelator (maxchelator.standford.edu) for a temperature of 20° C. HEK293T and PCT cells were recorded at room temperature in voltage-clamp mode using an Axopatch 200A (Molecular Devices) amplifier. Signals were filtered at 10 kHz and digitalized at 20 kHz. Whole-cell currents were elicited by voltage-ramps (from −100 to +100 mV, 1 s) and I-V stimulation pulses (from −100 to +100 mV in 20 mV increments, 1 s each pulse), holding the cells at −80 mV. Current densities were measured at +100 mV. Cell recordings, data acquisition and analysis of electrophysiology experiments were performed using pClamp software (Molecular Devices).
T1 sequence (P23299 whole entry partner, one chain of several): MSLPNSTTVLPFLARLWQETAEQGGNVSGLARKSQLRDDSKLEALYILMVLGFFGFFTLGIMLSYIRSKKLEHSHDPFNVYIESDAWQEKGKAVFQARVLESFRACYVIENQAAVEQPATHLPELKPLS

TMEM16A [2] = biological target: T2, TMEM16A (Mus musculus, UniProt Q8BHY3); assay: Whole-cell patch-clamp of HEK293T cells expressing TMEM16A; type: cell-based; settings: for inhibition of KCNE1-TMEM16A chloride current: HEK293T co-expressing TMEM16A and KCNE1; for effect of peptide application on TMEM16A current: HEK293T cells expressing TMEM16A alone, 100 μM for Nter13, S38G and rat peptides
T2 construct: expressed in transfected cells; host or cells: HEK293T
T2 sequence (Q8BHY3 1-960): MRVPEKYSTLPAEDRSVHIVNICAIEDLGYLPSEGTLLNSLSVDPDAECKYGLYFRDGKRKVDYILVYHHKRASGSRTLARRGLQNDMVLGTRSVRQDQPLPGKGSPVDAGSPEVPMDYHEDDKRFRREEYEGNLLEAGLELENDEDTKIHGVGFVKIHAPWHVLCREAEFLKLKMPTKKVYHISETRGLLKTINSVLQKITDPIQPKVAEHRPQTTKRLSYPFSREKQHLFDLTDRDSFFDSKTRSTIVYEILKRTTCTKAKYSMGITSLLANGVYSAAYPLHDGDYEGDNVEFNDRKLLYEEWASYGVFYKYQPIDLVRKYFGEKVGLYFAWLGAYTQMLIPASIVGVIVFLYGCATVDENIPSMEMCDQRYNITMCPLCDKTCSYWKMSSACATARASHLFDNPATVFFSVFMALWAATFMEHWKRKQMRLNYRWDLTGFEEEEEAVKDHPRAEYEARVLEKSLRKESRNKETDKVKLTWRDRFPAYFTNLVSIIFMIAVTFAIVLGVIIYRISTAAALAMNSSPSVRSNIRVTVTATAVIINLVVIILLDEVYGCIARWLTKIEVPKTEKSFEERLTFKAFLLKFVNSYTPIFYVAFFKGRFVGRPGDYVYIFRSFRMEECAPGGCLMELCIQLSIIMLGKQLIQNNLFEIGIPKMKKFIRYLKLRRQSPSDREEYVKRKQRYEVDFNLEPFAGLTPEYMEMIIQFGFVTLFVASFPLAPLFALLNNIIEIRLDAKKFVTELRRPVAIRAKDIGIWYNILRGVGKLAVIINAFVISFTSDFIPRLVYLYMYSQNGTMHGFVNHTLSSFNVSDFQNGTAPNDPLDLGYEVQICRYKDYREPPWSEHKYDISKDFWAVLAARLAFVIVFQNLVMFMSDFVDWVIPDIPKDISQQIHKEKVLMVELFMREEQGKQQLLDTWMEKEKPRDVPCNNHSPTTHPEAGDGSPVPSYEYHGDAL
Method: as §1, §2

[3] = Acute effect on tear fluid secretion (tearing rate, phenol red thread) in naive rats; type: in vivo, Sprague-Dawley rats
Method: Sprague-Dawley rats (males, around 200 g) were purchased from Charles River and adapted one week before processing the experiment. Two-three rats per cage were housed in a controlled environment of 12 hours intervals of light/dark cycles and free access to food and water. Animal experiments were approved by the Animal Care and Use Committee of the University of Barcelona (CEEA) and the […] de Territori i Sostenibilitat of Generalitat de Catalunya, Catalonia, Spain (319/19; 10935) and followed the ethical guidelines of the International Association for the Study of Pain. […] (also named Nter 13 peptide or […] NO: 2)) and scramble ([…] NO: 7)) peptides were purchased from GenScript Biotech (Leiden, Netherlands) and provided by CNRS. Both peptides were dissolved in Phosphate Buffered Saline (PBS) at 10 mM and used for topical ocular application (5 ul per eye). Tear fluid secretion (tearing rate) was measured using phenol red threads (Zone-Quick, Menicon, Nagoya, Japan) placed on the lower eyelid for 30 s without topical anesthesia (Trost, 2007; Acosta 2013). Tearing rate was determined with an accuracy of ±0.5 mm by measurement of the length of the red portion of the thread. After habituation of the animals, basal tearing rate was measured in both eyes before any topical application of peptides. Then, animals were divided in different groups and a solution containing vehicle (PBS), amiloride (1 mM), peptide N13 or peptide scramble was topically applied to the ocular surface (5 μl) and tearing rate was measured at 1, 3, 6, 12 and 24 h. Tearing rate measurements were done blind to the treatment received by the animals. Data are presented as mean±standard error of the mean (SEM). Statistical differences between different sets of data were assessed by performing repeated measured One-way ANOVA plus Bonferroni's post-tests (each data point in an experimental group vs. basal values) or repeated measured Two-way ANOVA plus Bonferroni's post-tests (each data point in […] group vs. Scramble or Vehicle group; or point in […] or amiloride groups vs. Vehicle group) using Prism 9 (GraphPad Software, San Diego, CA). The significance level was set at p<0.05 in all statistical analyses.

KCNQ1 = biological target: T3, KCNQ1 (Homo sapiens, UniProt P51787); assay: Whole-cell patch-clamp of cells transfected with KCNQ1 and KCNE1 variants; type: cell-based; settings: co-transfected with wild type KCNQ1, current densities at +40 mV
T3 construct: expressed in transfected cells

SK4 channel = biological target: T4, SK4 channel (Homo sapiens, UniProt O15554); assay: Patch-clamp of HEK293T cells transfected with SK4 and KCNE1; type: cell-based; settings: absence of calcium
T4 construct: expressed in transfected cells
Method: as §2

[4] = KCNE1 form co-expressed with TMEM16A in HEK293T cells

## O=C(O)c1cccnc1Nc1cccc(C(F)(F)F)c1 [NFA, niflumic acid, reference compound]
TMEM16A [1]; NFA 100 μM
  Cl- current density after inhibitor: 4.51±0.28 pA/pF
TMEM16A [2]; NFA 100 μM
  inhibition of KCNE1-TMEM16A chloride current: inhibited

## CCc1c(C)nc(SCC(=O)Nc2nc(-c3ccc(OC)cc3)cs2)[nH]c1=O [T16Ainh-A01, reference compound]
TMEM16A [1]; A01 10 μM
  Cl- current density after inhibitor: 5.52±0.72 pA/pF
TMEM16A [2]; T16A(inh)A01 10 μM
  inhibition of KCNE1-TMEM16A chloride current: inhibited

## hS38G: hS38G peptide (SEQ ID NO: 5), N13 presenting S38G polymorphism (LARRSPRGGDGKL; hN13 S38G) [reference compound]
TMEM16A [2]
  effect of peptide application on TMEM16A current: no effect

## T7I: KCNE1 disease mutation T7I, not in the regulating domain, control
TMEM16A [2]; [4]
  current density at +100 mV: 24.69±1.57 pA/pF

## N=C(N)NC(=O)c1nc(Cl)c(N)nc1N [Amiloride, amiloride, reference compound]
[3]; N13ter 10 mM, amiloride 1 mM, vehicle PBS
  effect on tearing rate compared with Vehicle: did not show a statistically significant effect
[3]; amiloride 1 mM topical
  eyes with increased tearing rate between 1 h to 3 h: 7 out of 14

## rN13: rat N13 peptide (SEQ ID NO: 6) (LARRSQLRDDSKL; amino acid residues between positions 30 to 42 of the rat KCNE1 protein sequence)
TMEM16A [2]
  effect of peptide application on TMEM16A current: only a small effect

## LLAKRGRDSGPSR (SEQ ID NO: 7) (Synthetic scramble peptide) [scrambled control peptide, reference compound]
TMEM16A [2]
  effect of peptide application on TMEM16A current: no effect
[3]; 10 mM topical, 5 μl per eye, n=20 eyes, basal 7.65±0.49 mm (N13ter), 8.10±0.54 mm (Scramble)
  tearing rate at 12 h: 6.45±0.34 mm
[3]; N13ter vs Scramble study, both 10 mM topical
  effect on tearing rate: sustained small decrease

## COc1ccccc1/C=N/NC(=O)COc1ccc(Cl)cc1C [Ani9, reference compound]
TMEM16A [1]; Ani9 5 μM
  Cl- current density after inhibitor: 2.88±0.38 pA/pF
TMEM16A [2]; Ani9 300 nM
  inhibition of KCNE1-TMEM16A chloride current: inhibited
TMEM16A [2]; Ani9 5 μM after Nter13 100 μM, HEK293T expressing TMEM16A alone
  effect of Ani9 on Nter13-induced TMEM16A current: reversion

## S38G: KCNE1 S38G polymorphism variant (full protein, not the hS38G peptide)
TMEM16A [2]; [4]
  current density at +100 mV: 6.96±0.78 pA/pF
KCNQ1
  effect of KCNE1 polymorphism on KCNQ1 regulation: do not impair the KCNQ1 regulation

## KCNE1: human KCNE1 protein of 129 amino acids (NP_000210.2), expressed from cDNA
TMEM16A [1]; kcne1−/− PCT cells transfected with KCNE1 cDNA, KO 5.37±0.56
  voltage-dependent Cl- current density after rescue: 21.59±1.38 pA/pF
TMEM16A [2]; KCNE1 co-expressed with TMEM16A in HEK293T cells
  reversal potential: −4.8±1.3 mV
TMEM16A [2]; [4]
  current density at +100 mV: 18.1±2.8 pA/pF
TMEM16A [2]; TMEM16A co-expressed with KCNE1, 1 mM BAPTA
  current density at +100 mV: 21.98±5.32 pA/pF
SK4 channel
  effect of KCNE1 overexpression on SK4 current: did not induce any increase
